Reference: patent publication EP1175467B1, “STABILIZED ADHESIVE COMPOSITIONS CONTAINING HIGHLY SOLUBLE, RED-SHIFTED, PHOTOSTABLE BENZOTRIAZOLE UV ABSORBERS AND LAMINATED ARTICLES DERIVED THEREFROM” (Ciba Specialty Chemicals Holding Inc., priority 1999, dated 2000)

Assay: Benzotriazole solubility in adhesive GELVA 263 (observed crystallization after solvent evaporation)
Conditions: in GELVA 263 polyacrylate adhesive; approximate maximum concentration, weight of total benzotriazole added to GELVA 263 as is
Description: To measure this solubility a number of structurally different benzotriazoles are added to a typical adhesive GELVA® 263 (Solutia) which is a 44.5% solution of a polyacrylate in a mixture of ethyl acetate and hexane. The polyacrylate is a copolymer of methyl methacrylate, 2-ethylhexyl methacrylate and glycidyl methacrylate.
The test benzotriazole is dissolved in 5 mL of ethyl acetate, toluene or a mixture of ethyl acetate and toluene. To the solution is added 5 g of GELVA® 263 and 2-3 mL of the resulting solution is placed into individual watch glasses. Solubility is then evaluated based upon observed crystallization once the solvent has evaporated. Observations start after several hours and then continue over a period of several weeks.
Solubilities are reported in weight of total benzotriazole added to GELVA® 263 as is.
Following the procedure of Example 3, the solubility in GELVA® 263 (Solutia) of various mixtures of benzotriazoles is determined. […]
The test compound is dissolved in 5 mL of ethyl acetate, toluene or a mixture of ethyl acetate and toluene. […] Solubility is then evaluated based upon observed crystallization once the solvent has evaporated. […]

## COC(=O)C[S+]([O-])c1ccc2nn(-c3cc(C(C)(C)C)cc(C(C)(C)C)c3O)nc2c1 (centres unmarked) [J, 5-methoxycarbonylmethylsulfinyl-2-(2-hydroxy-3,5-di-tert-butylphenyl)-2H-benzotriazole]
  Solubility without Crystallization (%): 8.0%

## COC(=O)CCc1cc(-n2nc3ccc(S(=O)(=O)c4ccccc4)cc3n2)c(O)c(C(C)(C)C)c1 [K, methyl 3-(5-phenylsulfonyl-2H-benzotriazol-2-yl)-5-tert-butyl-4-hydroxyhydrocinnamate]
  Solubility without Crystallization (%): 11.3%
